Results published in patent US20030229114A1, “Pyrroloquinoline quinone drugs as a neuroprotectant and methods of use thereof” (priority 2002, published 2003).
“And” between values parts separate entries of the source, which are not always exact repeats. Equal entries are not always repeated. “Also recorded” adds a separate entry of the source. Where two headings read alike, the source gives them in different places.

How the values were obtained:
[1] = test system: cultured rat forebrain neurons; test: Assay of intracellular ATP in neuronal cultures (firefly luciferase); format: cell-based
Method: (§1) Medium was not subsequently changed.
Experiments were carried out exclusively in EBSS. […] PQQ was directly dissolved in EBSS.
The Bioluminescent Somatic Cell Assay kit from Sigma (catalog No. FL-ASC) was used for assay of ATP as previously described (Rosenberg et al., 2000). At selected time points after addition of drug or vehicle, medium was removed, and then replaced with 200 μl of cell lysis agent. After brief agitation, the medium was transferred to microcentrifuge tubes that contained 200 μl of water. The tubes were placed on wet ice until assay. ATP assay mix was used at 25-fold dilution, and 100 μl of the extract was assayed.

[2] = Assay of H2O2 produced by the reaction of SIN-1 with SOD or PQQ; format: biochemical; conditions: data not shown
Method: The method described by Yakes and Van Houten (1997) was used, exploiting the oxidation of o-diansidine dihydrochloride (o-DD, Sigma D-3252) in the presence of horseradish peroxidase (Sigma P-8250). Briefly, SIN-1 (1 mM) was incubated with SOD (100 units/ml) or PQQ (100 μM) in the absence or presence of catalase (100 units/ml) in EBSS for various times. Then o-DD was added to a final concentration of 250 μM and 2.5 units/ml horseradish peroxidase were added. After 1 hr incubation at 37° C., the absorbance at 470 nm was measured. The concentration of H2O2 in samples was calculated based on a standard curve obtained by the reaction of various concentrations of H2O2 with o-DD and horseradish peroxidase.

[3] = test system: cultured rat forebrain neurons; test: Measurement of intracellular cGMP in neuronal cultures (enzyme-linked immunoassay); format: cell-based
Method: as §1
Intracellular cGMP was assayed by enzyme-linked immunoassay (Amersham). Cultures were washed three times, and then medium was replaced by EBSS with or without PQQ or SOD. The non-specific phosphodiesterase inhibitor, 3-isobutyl-1-methylxanthine (IBMX) at 100 μM was present in all conditions. DEA/NO, SIN-1 and peroxynitrite were added for 5 min, and then the medium was replaced with 200 μl of releasing reagent provided in the kit. The plates were agitated for 20 min at room temperature, and 20 μl of acetylation reagent was added. After 5 min, 50 μl samples were taken for assay.

[4] = test system: cultured rat forebrain neurons; test: Survival assay of neuronal cultures (Alamar Blue reduction, 24 hr); conditions: for EC50: Rattus norvegicus, Neuron, read-out: EC50 of the protective effect against SIN-1 toxicity, SIN-1 1 mM
Method: Neuronal cultures were prepared from embryonic day 16 Sprague Dawley rat fetuses using methods similar to those previously described (Dichter, 1978) but modified to produce cultures that contained <1% astrocytes (Rosenberg and Aizenman, 1989; Rosenberg, 1991; Rosenberg et al., 1992; Wang et al., 1998). Cultures were initially plated on poly-L-lysine-coated 24-well plastic plates (Costar, Cambridge, Mass.) using an 80:10:10 (v/v) mixture ofDMEM (Life Technologies 11960-010), Ham's F-12 (Sigma, N-4888), heat-inactivated iron-supplemented calf serum (Hyclone A2151), containing 2 mM glutamine, 25 mM HEPES, 24 U/ml penicillin, and 24 μg/ml streptomycin and maintained in a 5% CO2 (balance air) incubator at 36° C. Cell proliferation was inhibited by exposure to 5 μM cytosine arabinoside at 24 hr in vitro for 72 hr. On the fourth day of culture, the medium was completely removed and replaced with 90% MEM, 10% Nuserum IV (Collaborative Research), 2 mM glutamine, 5 mM HEPES, containing 50 units/ml superoxide dismutase (Boehringer Mannheim, Indianapolis, Ind.), 20 units/ml catalase (Sigma CV-40), total glucose 11 mM, and total sodium bicarbonate 9.3 mM, plus 2% B27 supplement (Life Technologies 17504-036). Medium was not subsequently changed. To prevent evaporation of water, culture dishes were kept in wet dishes containing filter paper that was always kept wet.
In all experiments, 24-well plates were first washed three times in Hank's balanced salt solution (HBSS) containing 0.1% bovine serum albumin (BSA), and then they were placed in Earle's balanced salt solution (EBSS, which is composed of 116 mM NaCl, 5.4 mM KCl, 1.8 mM CaCl2, 0.8 mM MgSO4, 26 mM NaHCO3, 1 mM NaH2PO4 and 5.5 mM D-glucose). Experiments were carried out exclusively in EBSS. […] PQQ was directly dissolved in EBSS.
Survival of cells was determined after 24 hr exposure to the test compounds by assessing the ability of cultures to reduce Alamar Blue (Trek Diagnostic Systems, Inc., Westlake, Ohio) as an index of viability (McGahon et al., 1995). Details of this procedure have been provided elsewhere (Back et al., 1998, 1999). In brief, the test medium was removed after 24 hr, and then replaced with EBSS plus a 1:100 dilution of Alamar Blue. After 2 hr exposure, the medium was diluted 50-fold with water, and the fluorescence intensity was determined in a Hitachi fluorescence spectrophotometer using an excitation wavelength of 530 nm and an emission wavelength of 590 nm. The photomultiplier voltage was set at 700 V. In some experiments, the cell viability determined by Alamar Blue was compared to that determined by the assay of lactate dehydrogenase (LDH) release (Koh and Choi, 1987).

BSA = test: Western blot of BSA tyrosine nitration, cell-free (anti-nitrotyrosine antibody); format: biochemical, bovine; conditions: 1 hr
Method: BSA (0.5 mg/ml) in EBSS with or without PQQ was exposed to SIN-1 or peroxynitrite for 1 hr, and then 4× sample buffer (40% glycerol, 20% β-mercaptoethanol, 0.004% bromophenol blue, 6.4% SDS, 25% 1M Tris-HCl, pH 6.8) was added. After the samples were heated for 5 min, 2 μg protein per lane was subjected to SDS-PAGE analysis, followed by transfer to PVDF membrane (NEN Life Science, Boston, Mass.) and reacted with a mouse anti-nitrotyrosine monoclonal antibody (Upstate Biotechnology). Proteins were visualized with horseradish peroxidase-conjugated sheep anti-mouse immunoglobulin G (IgG) followed by detection with enhanced chemiluminescence.

[5] = ESR, in vitro; Urakami et al (1997); read-out: IC50 in scavenging superoxide; cited from earlier work
[6] = ONOO− 100 μM in the presence of PQQ 100 μM

Structure (SMILES): O=C(O)c1cc(C(=O)O)c2c(n1)C(=O)C(=O)c1cc(C(=O)O)[nH]c1-2 [PQQ, Pyrroloquinoline quinone]
- Effect on ATP depletion caused by nitric oxide donors ([1]; PQQ 100 μM, DEA/NO, DPT/NO 1 mM): did not block; also recorded: no effect
- Effect on ATP depletion caused by ONOO− ([1]; PQQ 100 μM, ONOO− 100 μM): no effect
- Effect on ATP depletion induced by SIN-1 ([1]; PQQ 100 μM, SIN-1 1 mM, 1 hr): significantly blocked
- Intracellular ATP ([1]; of control values, 1 hr ONOO− 100 μM with PQQ 100 μM): 42±5.4% and 43.8±4.7%
- Intracellular ATP ([1]; of control values, 1 hr SIN-1 1 mM with PQQ 100 μM): 84.4±13.9% and 93±12.6%
- Intracellular ATP ([1]; one hour, DEA/NO 1 mM in the presence of PQQ 100 μM): 42.9±19.6%
- Intracellular ATP ([1]; one hour, DPT/NO 1 mM in the presence of PQQ 100 μM): 72.7±7.9%
- Effect on oxidation of o-diansidine by H2O2 [2]: did not reduce
- Intracellular cGMP content ([3]; DEA/NO 10 μM in the presence of PQQ 100 μM): 255±38 % of control
- Intracellular cGMP content [3, 6]: 142.5±16.2 % of control
- Effect on cGMP levels in the presence of DEA/NO ([3]; PQQ 100 μM, DEA/NO 10 μM): did not significantly alter
- Effect on cGMP accumulation induced by SIN-1 ([3]; PQQ 100 μM, SIN-1 100 μM): potentiated; also recorded: enhanced
- Intracellular cGMP content ([3]; SIN-1 100 μM in the presence of PQQ 100 μM): 267±19.5 % of control and 313.5±45 % of control
- Effect on neurotoxicity induced by NMDA plus DETA/NO ([4]; 24 hr exposure, PQQ 100 μM): fully blocked; also recorded: block
- Neuronal survival ([4]; DEA/NO 1 mM in the presence of PQQ 100 μM): 39.7±16.8 % of control
- Neuronal survival ([4]; DETA/NO 1 mM in the presence of PQQ 100 μM): 30.7±7.7 % of control
- Neuronal survival ([4]; DPT/NO 1 mM in the presence of PQQ 100 μM): 1.7±0.7 % of control
- Cell (neuronal) survival [4, 6]: 11±6% and 11±8%
- Effect on neurotoxicity caused by nitric oxide donors ([4]; PQQ 100 μM, DEA/NO, DPT/NO, DETA/NO 1 mM): nor did it prevent cell death; also recorded: no protective effect
- Effect on neurotoxicity induced by ONOO− (peroxynitrite) ([4]; PQQ 100 μM, ONOO− 100 μM): potentiated; also recorded: significantly potentiates
- Effect on neurotoxicity induced by SIN-1 ([4]; PQQ 100 μM, SIN-1 1 mM, no catalase): completely protected; also recorded: completely blocks
- EC50 ([4]; representative experiment FIG. 2B): 22.6 µM
- EC50 ([4]; three experiments): 15 ± 8.4 µM
- Effect on neurotoxicity induced by NMDA plus DETA/NO ([4]; four hour exposure, PQQ 100 μM, NMDA 20 μM, DETA/NO 300 μM): completely blocked; also recorded: blocks
- Effect on BSA nitration caused by ONOO− (BSA; ONOO− 100 μM, PQQ 100-500 μM): potentiated; also recorded: increased
- Effect on BSA nitration caused by SIN-1 (BSA; SIN-1 1 mM, PQQ 100 μM, 300 μM or 500 μM): completely blocked
- IC50 [5]: 0.038 µM
